Reference: US9969732B2, “Tetrahydroisoquinoline estrogen receptor modulators and uses thereof” (Genentech, Inc., priority 2016, dated 2018)
pEC50: −log10 of the molar value.

Target: T1, ER-alpha (WT) (Homo sapiens, UniProt P03372)
T1 construct: endogenous in cells; host or cells: MCF7 breast cancer cells
T1 sequence (P03372 1-595): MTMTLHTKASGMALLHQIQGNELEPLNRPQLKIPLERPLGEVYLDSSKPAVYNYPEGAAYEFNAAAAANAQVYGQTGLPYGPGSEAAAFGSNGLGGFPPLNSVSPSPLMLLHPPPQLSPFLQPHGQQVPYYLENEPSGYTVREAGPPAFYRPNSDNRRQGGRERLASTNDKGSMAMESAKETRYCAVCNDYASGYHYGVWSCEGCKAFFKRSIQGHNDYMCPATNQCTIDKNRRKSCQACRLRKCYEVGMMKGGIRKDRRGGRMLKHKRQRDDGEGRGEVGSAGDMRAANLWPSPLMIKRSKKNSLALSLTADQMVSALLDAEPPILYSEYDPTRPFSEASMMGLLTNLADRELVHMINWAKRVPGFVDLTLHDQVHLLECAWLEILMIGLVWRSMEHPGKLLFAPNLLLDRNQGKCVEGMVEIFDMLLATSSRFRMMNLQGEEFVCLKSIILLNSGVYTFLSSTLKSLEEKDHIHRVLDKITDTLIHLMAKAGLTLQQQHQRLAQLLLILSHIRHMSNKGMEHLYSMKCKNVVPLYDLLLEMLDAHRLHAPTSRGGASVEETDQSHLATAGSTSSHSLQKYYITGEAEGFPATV
Experiment: Breast Cancer Cell ERa High Content Fluorescence Imaging Degradation Assay (MCF7 HCS)
Assay type: cell-based
Conditions: MCF7 breast cancer cells, 4 hours incubation; for pEC50: inflexion point of curve; for ERalpha (WT) MCF7 HCS (S inf): plateau of the maximal effect, DMSO and Fulvestrant define 0% and 100% changes in ESR1
Method: MCF7 breast cancer cells were seeded on day 1 at a density of 10,000 cells per well in 384 well poly-lysine coated tissue culture plate (Greiner #T-3101-4), in 50 μL/well RPMI (phenol red free), 10% FBS (Charcoal stripped), containing L-glutamine. […] Compounds and controls were dispensed using a Labcyte Echo acoustic dispenser to dispense compounds with a predefined serial dilution (1.8×, 10 point, in duplicate) and appropriate backfill and control compounds (final total volume transferred was 417.5 nL and compound dispense volume ranges from 2.5 nL to 417.5 nL; 0.84% DMSO (v/v) final), ultimately producing a concentration range from 0.05 nM to 835 nM. Cell plates were incubated at 37° C., for 4 hours. Fixation and permeabilization were carried out using a Biotek EL406 plate washer and dispenser as follows. Cells were fixed by addition of 15 μL of 16% paraformaldehyde (Electron Microscopy Sciences #15710-S) directly to the 50 μL cell culture medium in each well using the peristaltic pump 5 μL cassette on a Biotek EL406 (final concentration of formaldehyde was 3.7% w/v). Samples were incubated 30 minutes. Well contents was aspirated and 50 μL/well of Phosphate Buffered Saline (PBS) containing 0.5% w/v bovine serum albumen, 0.5% v/v Triton X-100 (Antibody Dilution Buffer) was added to each well. Samples were incubated for 30 minutes. Well contents were aspirated and washed 3 times with 100 μL/well of PBS. Immunofluorescence staining of estrogen receptor alpha (ESR1) was carried out using a Biotek EL406 plate washer and dispenser as follows. The well supernatant was aspirated from the wells and 25 μL/well of anti-ESR1 mAb (F10) (Santa Cruz sc-8002) diluted 1:1000 in Antibody Dilution Buffer was dispensed. Samples were incubated for 2 hours at room temperature. Samples were washed 4 times with 100 μL/well of PBS. 25 μL (microliters)/well of secondary antibody solution (Alexafluor® 488 conjugate anti-mouse IgG (LifeTechnologies #A21202) diluted 1:1000 and Hoechst 33342 1 μg/mL diluted in Antibody Dilution Buffer) were dispensed into each well. Samples were incubated for 2 hours at room temperature. Samples were washed 3 times with 100 μL/well of PBS using a Biotek EL406. Quantitative fluorescence imaging of ESR1 was carried out using a Cellomics Arrayscan V® (Thermo). Fluorescence images of the samples (Channel 1: XF53 Hoechst (DNA stain); Channel 2: XF53 FITC (ESR1 stain)) were acquired using a Cellomics VTI Arrayscan using the Bioapplication “Compartmental Analysis” using the auto-exposure (based on DMSO control wells) setting “peak target percentile” set to 25% target saturation for both channels. Channel 1 (DNA stain) was used to define the nuclear region (Circ). Measurements of “Mean_CircAvgIntCh2”, which is the Alexafluor 488 fluorescence intensity (ESR1) within the nuclear region, was measured on a per cell basis and averaged over all the measured cells. Data analysis was carried out using Genedata Screener Software, with DMSO and 5 nM Fulvestrant treated samples being used to define the 0% and 100% changes in ESR1. The “Robust Fit” method was used to define the inflexion point of curve (EC50) and the plateau of the maximal effect (Sinf).

For `CC(C)(F)C(=O)N1CCc2cc(O)ccc2[C@@H]1c1ccc(OCCN2CC(CF)C2)cc1` (single isomer, unassigned) [Example 103], the pEC50 was 7.00.
In the case of `CC(C)(F)C(=O)N1CCc2cc(O)ccc2[C@H]1c1ccc(OCCN2CC(CF)C2)cc1` (single isomer, unassigned) [Example 104], the pEC50 was 9.13 and the “ERalpha (WT) MCF7 HCS (S inf)” value was −90%.
`CC(C)(F)CN1CCc2cc(O)ccc2[C@]1(C)c1ccc(OCCN2CC(CF)C2)cc1` (single isomer, unassigned) [Example 107] was tested, and the pEC50 was 8.49 and the “ERalpha (WT) MCF7 HCS (S inf)” value was −97%.
In the case of `CC(C)(F)CN1CCc2cc(O)ccc2[C@@]1(C)c1ccc(OCCN2CC(CF)C2)cc1` (single isomer, unassigned) [Example 108], the pEC50 was 10.46 and the “ERalpha (WT) MCF7 HCS (S inf)” value was −98%.
`CS(=O)(=O)N1CCc2cc(O)ccc2[C@@H]1c1ccc(OCCN2CC(CF)C2)cc1` (single isomer, unassigned) [Example 109] was tested, and the pEC50 was ≤ 7.00.
With `CS(=O)(=O)N1CCc2cc(O)ccc2[C@H]1c1ccc(OCCN2CC(CF)C2)cc1` (single isomer, unassigned) [Example 110] the pEC50 was 8.08 and the “ERalpha (WT) MCF7 HCS (S inf)” value was −85%.
With `C[C@H]1CN(S(C)(=O)=O)[C@@H](c2ccc(OCCN3CC(CF)C3)cc2)c2ccc(O)cc21` (single isomer, unassigned) [Example 118] the pEC50 was ≤ 7.00.
`C[C@@H]1CN(S(C)(=O)=O)[C@@H](c2ccc(OCCN3CC(CF)C3)cc2)c2ccc(O)cc21` (single isomer, unassigned) [Example 119] was tested, and the pEC50 was ≤ 7.00.
`C[C@@H]1Cc2c(ccc3[nH]ncc23)[C@@H](c2c(F)cc(OCCN3CC(CF)C3)cc2F)N1CC(C)(C)F` (single isomer, unassigned) [Example 123] was tested, and the pEC50 was 10.22 and the “ERalpha (WT) MCF7 HCS (S inf)” value was −98.8%.
With `C[C@H]1Cc2c(ccc3[nH]ncc23)[C@H](c2c(F)cc(OCCN3CC(CF)C3)cc2F)N1CC(C)(C)F` (single isomer, unassigned) [Example 124] the pEC50 was 8.49 and the “ERalpha (WT) MCF7 HCS (S inf)” value was −90%.
`CC(C)(F)CN1CCc2cc(O)ccc2[C@@]1(c1ccc(OCCN2CC(CF)C2)cc1)C(F)F` (single isomer, unassigned) [Example 127] was tested, and the pEC50 was 7.66 and the “ERalpha (WT) MCF7 HCS (S inf)” value was −85%.
In the case of `CC(C)(F)CN1CCc2cc(O)ccc2[C@]1(c1ccc(OCCN2CC(CF)C2)cc1)C(F)F` (single isomer, unassigned) [Example 128], the pEC50 was 10.12 and the “ERalpha (WT) MCF7 HCS (S inf)” value was −95%.
For `C[C@H]1Cc2cc(O)ccc2[C@H](c2ccc(OCCN3CC(CF)C3)cc2)N1CC(F)(F)F` (single isomer, unassigned) [Example 131], the pEC50 was 8.85 and the “ERalpha (WT) MCF7 HCS (S inf)” value was −96%.
With `C[C@@H]1Cc2cc(O)ccc2[C@@H](c2ccc(OCCN3CC(CF)C3)cc2)N1CC(F)(F)F` (single isomer, unassigned) [Example 132] the pEC50 was 10.96 and the “ERalpha (WT) MCF7 HCS (S inf)” value was −97%.
With `Oc1ccc2c(c1)CCCN(CC(F)(F)F)[C@H]2c1ccc(OCCN2CC(CF)C2)cc1` (single isomer, unassigned) [Example 139] the pEC50 was 10.00 and the “ERalpha (WT) MCF7 HCS (S inf)” value was −95.4%.
With `Oc1ccc2c(c1)CCCN(CC(F)(F)F)[C@@H]2c1ccc(OCCN2CC(CF)C2)cc1` (single isomer, unassigned) [Example 140] the pEC50 was 10.30 and the “ERalpha (WT) MCF7 HCS (S inf)” value was −96.6%.
With `Oc1ccc2c(c1)CCN(CC(F)(F)F)C2c1c(F)cc(OC2CN(CCCF)C2)cc1F` (single isomer, unassigned) [Example 143] the pEC50 was 7.66 and the “ERalpha (WT) MCF7 HCS (S inf)” value was −100%.
In the case of `Oc1ccc2c(c1)CCN(CC(F)(F)F)C2c1c(F)cc(OC2CN(CCCF)C2)cc1F` (single isomer, unassigned) [Example 144], the pEC50 was 10.39 and the “ERalpha (WT) MCF7 HCS (S inf)” value was −102%.
For `OCc1ccc2c(c1)CCN(CC(F)(F)F)C2c1ccc(OCCN2CC(CF)C2)cc1` (single isomer, unassigned) [Example 149], the pEC50 was 7.00 and the “ERalpha (WT) MCF7 HCS (S inf)” value was −100%.
With `Oc1ccc2c(c1)CCN(CC(F)(F)F)[C@H]2c1ccc(OCCN2CC(CF)C2)cc1` (single isomer, unassigned) [Example 153] the pEC50 was 9.27 and the “ERalpha (WT) MCF7 HCS (S inf)” value was −99%.
`Oc1ccc2c(c1)CCN(CC(F)(F)F)[C@@H]2c1ccc(OCCN2CC(CF)C2)cc1` (single isomer, unassigned) [Example 154] was tested, and the pEC50 was 10.62 and the “ERalpha (WT) MCF7 HCS (S inf)” value was −99%.
For `C[C@H]1Cc2ccccc2[C@H](c2ccc(OCCN3CC(CF)C3)cc2)N1CC(F)(F)F` (single isomer, unassigned) [Example 155], the pEC50 was 7.51 and the “ERalpha (WT) MCF7 HCS (S inf)” value was −70%.
With `C[C@@H]1Cc2ccccc2[C@@H](c2ccc(OCCN3CC(CF)C3)cc2)N1CC(F)(F)F` (single isomer, unassigned) [Example 156] the pEC50 was 9.07 and the “ERalpha (WT) MCF7 HCS (S inf)” value was −97%.
`CC1(C)Cc2cc(O)ccc2C(c2ccc(OCCN3CC(CF)C3)cc2)N1CC(F)(F)F` (single isomer, unassigned) [Example 158] was tested, and the pEC50 was 10.38 and the “ERalpha (WT) MCF7 HCS (S inf)” value was −96%.
For `C[C@@H]1Cc2cc(CO)ccc2[C@@H](c2ccc(OCCN3CC(CF)C3)cc2)N1CC(F)(F)F` (single isomer, unassigned) [Example 159], the pEC50 was 10.37 and the “ERalpha (WT) MCF7 HCS (S inf)” value was −99%.
`C[C@H]1Cc2cc(CO)ccc2[C@H](c2ccc(OCCN3CC(CF)C3)cc2)N1CC(F)(F)F` (single isomer, unassigned) [Example 160] was tested, and the pEC50 was 7.72 and the “ERalpha (WT) MCF7 HCS (S inf)” value was −88%.
`C[C@H]1Cc2cc(C(=O)O)ccc2[C@H](c2ccc(OCCN3CC(CF)C3)cc2)N1CC(F)(F)F` (single isomer, unassigned) [Example 163] was tested, and the pEC50 was 7.96 and the “ERalpha (WT) MCF7 HCS (S inf)” value was −92%.
In the case of `C[C@@H]1Cc2cc(C(=O)O)ccc2[C@@H](c2ccc(OCCN3CC(CF)C3)cc2)N1CC(F)(F)F` (single isomer, unassigned) [Example 164], the pEC50 was 8.89 and the “ERalpha (WT) MCF7 HCS (S inf)” value was −100%.
For `C[C@@H]1Cc2cccc(O)c2[C@@H](c2ccc(OCCN3CC(CF)C3)cc2)N1CC(F)(F)CO` (single isomer, unassigned) [Example 167], the pEC50 was 7.66 and the “ERalpha (WT) MCF7 HCS (S inf)” value was −82%.
In the case of `C[C@H]1Cc2cccc(O)c2[C@H](c2ccc(OCCN3CC(CF)C3)cc2)N1CC(F)(F)CO` (single isomer, unassigned) [Example 168], the pEC50 was 6.29.
`C[C@H]1Cc2cc(CO)ccc2[C@H](c2ccc(NC3CN(CCCF)C3)cc2)N1CC(F)(F)F` (single isomer, unassigned) [Example 169] was tested, and the pEC50 was 7.43 and the “ERalpha (WT) MCF7 HCS (S inf)” value was −60%.
In the case of `C[C@@H]1Cc2cc(CO)ccc2[C@@H](c2ccc(NC3CN(CCCF)C3)cc2)N1CC(F)(F)F` (single isomer, unassigned) [Example 170], the pEC50 was 10.06 and the “ERalpha (WT) MCF7 HCS (S inf)” value was −100%.
In the case of `C[C@H]1Cc2cc(CO)ccc2[C@H](c2ccc(OCCN3CC(CF)C3)cc2)N1CC(F)(F)CO` (single isomer, unassigned) [Example 171], the pEC50 was 7.64 and the “ERalpha (WT) MCF7 HCS (S inf)” value was −63%.
